From US7563459B2, “Methods and compositions for regenerating tissue” (The United States of America as represented by the …, priority 2002, dated 2009)
Entries after “also recorded” stand apart in the source; their conditions may differ.

Columns and labels:
[1] = tested on: human mesenchymal stem cells (MSC); assay: In vivo trafficking of 111In-labeled human mesenchymal stem cells (MSC) after glycoprotein pretreatment, gamma camera imaging; parameters: species or system NOD-SCID mice
Experimental: Human mesenchymal stem cells (hMSCs; PT-2501) obtained through an FDA-monitored, paid bone marrow donor program were purchased from Poietics Technologies, BioWhittaker (Walkerville, Md.). The cells were thawed according to manufacturer recommendations, resuspended, and radiolabelled in Mesenchymal Stem Cell Basal Medium (MSCBM).
^111Indium Oxine Labelling Procedure: ^111In-oxine labelling of adult human CD34+ or mesenchymal stem cells (hMSCs) was performed using a modification of the Amersham Healthcare Procedure for labelling autologous leukocytes.
Imaging procedures: Nuclear Medicine. NOD-SCID mice were anesthetized using rodent anesthesia cocktail. Once anesthetized, the mice were placed on a foam hemi-cylindrical mouse-positioning device (MPD,) and covered with a tube sock. The MPD allows better visual separation of the lungs and liver as compared to placing the mouse on a flat surface. The foam on which the mouse was placed, and the tube sock covering maintained a comfortable temperature permitting longer imaging without additional anesthesia. The MPD was placed on a narrow table between the dual heads of a Siemens E.Cam Gamma Camera and imaged statically or dynamically in 2-D or SPECT. ^57Co-Spot Marker is used to mark anatomic positions (nose, tail, cannula, etc.). The data was analyzed using a Siemens ICON system for regions of interest or percent of injected dose (e.g., liver, spleen, heart).
Gamma camera imaging using a Siemens E.Cam dual head gamma camera monitored the in vivo trafficking patterns of all human stem cells described in the following examples. Mice were placed on a Mouse Positioning Device (MPD) and placed between the detectors on the imaging platform.
MSC were obtained from BioWhittaker, (Poietics Division, cryopreserved PT-2501>750000 cells per ampoule) and labelled with ^111In as in previous examples, except that the MSC were labelled, washed, and injected in Basal Stem Cell Medium (Poietics) containing 5% human serum albumin (HSA). 0.56×10^6, ^111In-labelled, human mesenchymal stem cells (MSC) were administered via an implanted DaVinci Microport Vascular System cannula in the external jugular vein of a two-month old, female NOD-SCID mouse in 0.21 ml of basal stem cell medium containing 5% human serum albumin (HSA). Immediately prior to administration of MSC, 11.0 mg of orosomucoid was administered i.v. in 0.2 ml.
0.56×10^6, ^111In-labeled MSC were administered i.v. in 0.21 ml of basal stem cell medium containing 5% human serum albumin (HSA). […]

[2] = tested on: platelet aggregation induced by ADP and adrenaline; settings: reported in the literature; cited from earlier work
[3] = tested on: human mesenchymal stem cells (MSC); assay: In situ hybridization for human DNA in organs after MSC infusion; type: in vivo, NOD-SCID mice; settings: 0.56×10^6 MSC preceded by 11 mg orosomucoid i.v.
Source text: Mice were imaged and the biodistribution of the radiolabelled MSCs cells monitored as described in Example 1. […] The positions of the cannula, diaphragm, heart, lungs, and liver were verified by CT scans (coronal sections).
The positions of the cannula, diaphragm, heart, lungs, and liver were verified by CT scans. In situ hybridization confirmed the gamma camera biodistribution data.

[4] = tested on: human CD34+ (hCD34+) peripheral blood stem cells; assay: Microscopic examination of organs: immunohistochemical staining for human CD34 and in situ hybridization for human DNA after HSC infusion; type: in vivo, NOD-SCID mice
Source text: Harvesting for tissues for histopathology: Tissues were harvested after euthanasia. After the 1-hour image, the organs were harvested and half the organ was fixed in 10% neutral buffered formalin and the other half was frozen in OTC for frozen sections. The images presented herein are from fixed tissues.
Necropsy Procedure For Collection of Mouse Tissues: An initial midline skin incision from the anterior cervical region to the brim of the pubis was made followed by an abdominal incision following linea alba from the sternum to the pubis with a lateral reflection of the abdominal wall by incision following the caudal ribs. The sternum was reflected anteriorly by cutting the ribs at approximately the level of the costochrondral junction, incising the diaphragm and pericardium as needed. Anteriorly, reflection of sternum was extended to include the ventral cervical muscles to expose the trachea. The trachea and esophagus were incised at the mid cervical area and reflected caudally, cutting attachments as necessary to remove the thoracic viscera in toto. Following removal of the thoracic viscera, the entire heart was dissected free and immersed in 10% neutral buffered formalin. […]
Mice were imaged and the biodistribution of the radiolabelled hCD34+ cells monitored as described above. […]

[5] = tested on: human CD34+ (hCD34+) peripheral blood stem cells; assay: In vivo trafficking of 111In-labeled human CD34+ stem cells (HSC) after glycoprotein pretreatment, gamma camera imaging; parameters: species or system NOD-SCID mice
[6] = cells infused into the jugular vein of immunodeficient mice, preceded by an infusion of the protein

Orosomucoid: alpha-(1)-acid glycoprotein, a normal constituent of human plasma; single polypeptide chain, approximately 45% carbohydrate including 12% sialic acid
% Infused Cells In Heart ([1]; 0.56×10^6 MSC preceded by 11 mg orosomucoid i.v., 0 hr): 61.7-75.5%
% Infused Cells In Heart ([1]; 0.56×10^6 MSC preceded by 11 mg orosomucoid i.v., 1 hr): 58-64%
% Infused Cells In Heart ([1]; MSC/Orosomucoid, at 12 hr (Table 1)): 61 ± 3% at 12 hr
Organ in which mesenchymal stem cells localize (summary, words) [1, 6]: predominantly localize in the heart
Amounts that inhibit platelet aggregation [2]: 5 to 15 mg/mL
Location of human cells by in situ hybridization [3]: human cells predominantly in the heart, but not the liver
Tissue location of hCD34+ cells (CD34 staining, in situ hybridization for human DNA) ([4]; 0.5×10^6 HSC preceded by 11 mg orosomucoid i.v., about 1 hour after infusion): Clusters of cells with stem cell morphology could be seen in the hepatic sinusoid; also recorded: not found in the heart muscle or interventricular septum but were present in the lung
Migration of stem cells into tissue (summary, words) ([4]; hematopoietic stem cells after protein infusion): clusters of stem cells are found in the liver parenchyma
% infused cells in liver region ([5]; 0.5×10^6 HSC preceded by 11 mg orosomucoid i.v., 1 hr): 40±3%
% infused cells in liver and spleen ([5]; 0.5×10^6 HSC preceded by 11 mg orosomucoid i.v., immediately after infusion): 43±2%
111In-labeled HSC in the region of the heart (imaging, words) ([5]; 5.75×10^6 HSC preceded by 5.5 mg orosomucoid i.v.): No ^111In-labeled cells were found in the region of the heart
Organ in which hematopoietic stem cells localize (summary, words) [5, 6]: localize in the liver
